Measured values from patent US20100035755A1, “METHOD OF CONTROLLING WEEDS IN A TURF GRASS BY USING SULFONYLUREA COMPOUNDS” (Moghu Research Center Ltd., priority 2008, published 2010).

Key:
Bentgrass = assay: Turf grass selectivity, greenhouse pot test; format: in vivo, Agrostris palustris
Excerpt: (§1) Turf mats of Zoysia grass, bentgrass, Kentucky bluegrass, or perennial rye grass known as cool season turfgrass or western grass were purchased and cut into a piece having 10 cm×20 cm size. Then, each piece was transplanted in a rectangular plastic pot (surface area of 300 cm^2) in which sandy loam and mixed top soil (Boo-Nong Top Soil No. 3, for horticultural use) are filled in 1:1 ratio. After the transplantation, the grasses were cut once a week to maintain the blade height at 0.5-1.0 cm and cultivated for one month in a green house of which temperature was kept at 25˜30° C. for daytime and 15˜25° C. for nighttime, respectively. Then, the ‘test chemical’ of the above Examples 1 and 2 or ‘control chemical’ was applied thereto in an amount of 400, 200, 100, 50, 25, 12, 6, 3 g ai/ha. As a “control chemical”, pyrazolsulfuron ethyl wettable agent (manufactured by Dongbu Fine Chemicals; herein after, referred to as ‘control chemical No. 1’) and flazasulfuron (manufactured by Dongbu HiTek; herein after, referred to as ‘control chemical No. 2’), both sulfonylurea herbicides for a turf grass, were used. Application was carried out by using a track sprayer (R&D Sprayer, USA) equipped with Teejet 8002 nozzle (Spraying Systems Co., USA), and the application amount was adjusted to 2,000 L/ha, which is a typical application amount for a golf course in Korea. Application solution was prepared by diluting the “test chemical” or the “control chemical” with tap water. […] The test was repeated three times in a random arrangement and the results are given in average value of each test (see Table 2 below).

Kentucky bluegrass = assay: Turf grass selectivity, greenhouse pot test; format: in vivo, Poa pratensis
Excerpt: as §1

Cyperus amuricus = assay: Weed spectrum, greenhouse pot test; format: in vivo; conditions: two weeks after application
Excerpt: (§2) To a rectangular plastic pot (surface area of 300 cm^2) in which sandy loam and mixed top soil (Boo-Nong Top Soil No. 3, for horticultural use) are filled in 1:1 ratio, eight different kinds of weed seeds including Poa annua and Digitaria sanguinalis as poaceae weed, Cyperus amuricus as cyperaceae weeds and Trifolium repens, Kummerowia striata, fleabane, Veronica officinalis and Portulaca oleracea as broadleaf weeds were sewn (50 to 100 seeds per each weed). These weeds are representative examples of the weeds which typically thrive in a turf grass field.
(§3) The pot was kept in a greenhouse which was maintained at 25˜30° C. for daytime and 15˜25° C. for nighttime, respectively, and irrigation was carried out regularly. Fourteen days after seeding, when the turf grass and the weeds reached approximately at three-leaf stage, the weed seeds were again sewn in separate two pots or “Test chemical” and “Control chemical” were applied in the same manner as the method described above. In this regard, when plants were cultivated for two weeks and then the chemical application was carried out, it is designated as “post-emergence” treatment. On the other than, when the seeding was carried right before the chemical application, it is designated as “pre-emergence” treatment. Preparation of a chemical solution, application method, etc. are the same as above described for evaluation of turf grass selectivity. Two weeks after the chemical application, efficacy of the chemicals for each type of the weeds was evaluated (visual evaluation) based on 0 to 100 scale (i.e., 0 indicates no efficacy and 100 indicates complete weed control).

Digitaria sanguinalis = assay: Weed spectrum, greenhouse pot test; format: in vivo; conditions: for efficacy (0-100 scale): two weeks after application
Excerpt: as §2, §3

Kummerowia striata = assay: Weed spectrum, greenhouse pot test; format: in vivo; conditions: two weeks after application
Excerpt: as §2, §3

Poa annua = assay: Weed spectrum, greenhouse pot test; format: in vivo; conditions: for efficacy (0-100 scale): two weeks after application
Excerpt: as §2, §3

Portulaca oleracea = assay: Weed spectrum, greenhouse pot test; format: in vivo; conditions: two weeks after application
Excerpt: as §2, §3

Trifolium repens = assay: Weed spectrum, greenhouse pot test; format: in vivo; conditions: two weeks after application
Excerpt: as §2, §3

Veronica officinalis = assay: Weed spectrum, greenhouse pot test; format: in vivo; conditions: two weeks after application
Excerpt: as §2, §3

COc1nc(C)nc(NC(=O)NS(=O)(=O)c2cscc2C2(CF)OCCO2)n1 [Example 2, 3-(2-fluoromethyl-1,3-dioxalan-2-yl)-N-[(4-methoxy-6-methyltriazin-2-yl)aminocarbonyl]4-thiophene sulfonamide]
5: phytotoxicity (visual assessment 0-10) (Bentgrass; 6 g ai/ha, 2 weeks) | phytotoxicity (visual assessment 0-10) (Bentgrass; 12 g ai/ha, 4 weeks) | phytotoxicity (visual assessment 0-10) (Kentucky bluegrass; 6 g ai/ha, 2 weeks) | phytotoxicity (visual assessment 0-10) (Kentucky bluegrass; 12 g ai/ha, 4 weeks)
100: efficacy (0-100 scale) (Digitaria sanguinalis; Post-emergence, 100 g ai/ha) | efficacy (0-100 scale) (Digitaria sanguinalis; Pre-emergence, 50 g ai/ha) | efficacy (0-100 scale) (Digitaria sanguinalis; Pre-emergence, 100 g ai/ha) | efficacy (0-100 scale) (Kummerowia striata; Post-emergence, 50 g ai/ha) | efficacy (0-100 scale) (Kummerowia striata; Post-emergence, 100 g ai/ha) | efficacy (0-100 scale) (Kummerowia striata; Pre-emergence, 100 g ai/ha) | efficacy (0-100 scale) (Portulaca oleracea; Post-emergence, 50 g ai/ha) | efficacy (0-100 scale) (Portulaca oleracea; Post-emergence, 100 g ai/ha) | efficacy (0-100 scale) (Portulaca oleracea; Pre-emergence, 50 g ai/ha) | efficacy (0-100 scale) (Portulaca oleracea; Pre-emergence, 100 g ai/ha)
3: phytotoxicity (visual assessment 0-10) (Bentgrass; 3 g ai/ha, 2 weeks) | phytotoxicity (visual assessment 0-10) (Bentgrass; 6 g ai/ha, 4 weeks) | phytotoxicity (visual assessment 0-10) (Kentucky bluegrass; 3 g ai/ha, 2 weeks) | phytotoxicity (visual assessment 0-10) (Kentucky bluegrass; 6 g ai/ha, 4 weeks)
7: phytotoxicity (visual assessment 0-10) (Bentgrass; 12 g ai/ha, 2 weeks) | phytotoxicity (visual assessment 0-10) (Kentucky bluegrass; 12 g ai/ha, 2 weeks)
40: efficacy (0-100 scale) (Cyperus amuricus; Post-emergence, 25 g ai/ha) | efficacy (0-100 scale) (Digitaria sanguinalis; Post-emergence, 12 g ai/ha) | efficacy (0-100 scale) (Trifolium repens; Post-emergence, 12 g ai/ha) | efficacy (0-100 scale) (Veronica officinalis; Pre-emergence, 50 g ai/ha)
30: efficacy (0-100 scale) (Cyperus amuricus; Post-emergence, 12 g ai/ha) | efficacy (0-100 scale) (Cyperus amuricus; Pre-emergence, 25 g ai/ha) | efficacy (0-100 scale) (Trifolium repens; Pre-emergence, 12 g ai/ha) | efficacy (0-100 scale) (Veronica officinalis; Pre-emergence, 12 g ai/ha) | efficacy (0-100 scale) (Veronica officinalis; Pre-emergence, 25 g ai/ha)
60: efficacy (0-100 scale) (Cyperus amuricus; Pre-emergence, 100 g ai/ha) | efficacy (0-100 scale) (Poa annua; Post-emergence, 12 g ai/ha) | efficacy (0-100 scale) (Poa annua; Pre-emergence, 25 g ai/ha) | efficacy (0-100 scale) (Trifolium repens; Post-emergence, 50 g ai/ha) | efficacy (0-100 scale) (Trifolium repens; Post-emergence, 100 g ai/ha) | efficacy (0-100 scale) (Trifolium repens; Pre-emergence, 25 g ai/ha)
10: phytotoxicity (visual assessment 0-10) (Bentgrass; 25 g ai/ha, 2 weeks) | phytotoxicity (visual assessment 0-10) (Bentgrass; 25 g ai/ha, 4 weeks) | phytotoxicity (visual assessment 0-10) (Bentgrass; 50 g ai/ha, 2 weeks) | phytotoxicity (visual assessment 0-10) (Bentgrass; 50 g ai/ha, 4 weeks) | phytotoxicity (visual assessment 0-10) (Bentgrass; 100 g ai/ha, 2 weeks) | phytotoxicity (visual assessment 0-10) (Bentgrass; 100 g ai/ha, 4 weeks) | phytotoxicity (visual assessment 0-10) (Bentgrass; 200 g ai/ha, 2 weeks) | phytotoxicity (visual assessment 0-10) (Bentgrass; 200 g ai/ha, 4 weeks) | phytotoxicity (visual assessment 0-10) (Bentgrass; 400 g ai/ha, 2 weeks) | phytotoxicity (visual assessment 0-10) (Bentgrass; 400 g ai/ha, 4 weeks) | phytotoxicity (visual assessment 0-10) (Kentucky bluegrass; 25 g ai/ha, 2 weeks) | phytotoxicity (visual assessment 0-10) (Kentucky bluegrass; 25 g ai/ha, 4 weeks) | phytotoxicity (visual assessment 0-10) (Kentucky bluegrass; 50 g ai/ha, 2 weeks) | phytotoxicity (visual assessment 0-10) (Kentucky bluegrass; 50 g ai/ha, 4 weeks) | phytotoxicity (visual assessment 0-10) (Kentucky bluegrass; 100 g ai/ha, 2 weeks) | phytotoxicity (visual assessment 0-10) (Kentucky bluegrass; 100 g ai/ha, 4 weeks) | phytotoxicity (visual assessment 0-10) (Kentucky bluegrass; 200 g ai/ha, 2 weeks) | phytotoxicity (visual assessment 0-10) (Kentucky bluegrass; 200 g ai/ha, 4 weeks) | phytotoxicity (visual assessment 0-10) (Kentucky bluegrass; 400 g ai/ha, 2 weeks) | phytotoxicity (visual assessment 0-10) (Kentucky bluegrass; 400 g ai/ha, 4 weeks)
20: efficacy (0-100 scale) (Cyperus amuricus; Pre-emergence, 12 g ai/ha) | efficacy (0-100 scale) (Veronica officinalis; Post-emergence, 12 g ai/ha) | efficacy (0-100 scale) (Veronica officinalis; Post-emergence, 25 g ai/ha) | efficacy (0-100 scale) (Veronica officinalis; Post-emergence, 50 g ai/ha) | efficacy (0-100 scale) (Veronica officinalis; Post-emergence, 100 g ai/ha)
80: efficacy (0-100 scale) (Poa annua; Post-emergence, 25 g ai/ha)
90: efficacy (0-100 scale) (Digitaria sanguinalis; Post-emergence, 50 g ai/ha) | efficacy (0-100 scale) (Kummerowia striata; Pre-emergence, 25 g ai/ha) | efficacy (0-100 scale) (Kummerowia striata; Pre-emergence, 50 g ai/ha) | efficacy (0-100 scale) (Poa annua; Post-emergence, 50 g ai/ha) | efficacy (0-100 scale) (Poa annua; Pre-emergence, 50 g ai/ha) | efficacy (0-100 scale) (Poa annua; Pre-emergence, 100 g ai/ha) | efficacy (0-100 scale) (Portulaca oleracea; Post-emergence, 25 g ai/ha) | efficacy (0-100 scale) (Portulaca oleracea; Pre-emergence, 12 g ai/ha) | efficacy (0-100 scale) (Portulaca oleracea; Pre-emergence, 25 g ai/ha) | efficacy (0-100 scale) (Trifolium repens; Pre-emergence, 100 g ai/ha)
95: efficacy (0-100 scale) (Digitaria sanguinalis; Pre-emergence, 12 g ai/ha) | efficacy (0-100 scale) (Digitaria sanguinalis; Pre-emergence, 25 g ai/ha) | efficacy (0-100 scale) (Poa annua; Post-emergence, 100 g ai/ha)
70: efficacy (0-100 scale) (Digitaria sanguinalis; Post-emergence, 25 g ai/ha) | efficacy (0-100 scale) (Kummerowia striata; Post-emergence, 12 g ai/ha) | efficacy (0-100 scale) (Kummerowia striata; Post-emergence, 25 g ai/ha) | efficacy (0-100 scale) (Kummerowia striata; Pre-emergence, 12 g ai/ha) | efficacy (0-100 scale) (Portulaca oleracea; Post-emergence, 12 g ai/ha) | efficacy (0-100 scale) (Trifolium repens; Pre-emergence, 50 g ai/ha)
at least 90%: weed controlled (Digitaria sanguinalis; 50 to 100 g/ha) | weed controlled (Poa annua; 50 to 100 g/ha)
1: phytotoxicity (visual assessment 0-10) (Bentgrass; 3 g ai/ha, 4 weeks) | phytotoxicity (visual assessment 0-10) (Kentucky bluegrass; 3 g ai/ha, 4 weeks)
50: efficacy (0-100 scale) (Cyperus amuricus; Post-emergence, 50 g ai/ha) | efficacy (0-100 scale) (Cyperus amuricus; Post-emergence, 100 g ai/ha) | efficacy (0-100 scale) (Cyperus amuricus; Pre-emergence, 50 g ai/ha) | efficacy (0-100 scale) (Poa annua; Pre-emergence, 12 g ai/ha) | efficacy (0-100 scale) (Trifolium repens; Post-emergence, 25 g ai/ha) | efficacy (0-100 scale) (Veronica officinalis; Pre-emergence, 100 g ai/ha)
